Reference: US9006487B2, “Amine-containing lipids and uses thereof” (Massachusetts Institute of Technology, priority 2005, dated 2015)

Tests used:
cos-7 cells = test: DNA transfection: luciferase expression relative to Lipofectamine 2000; assay type: cell-based; conditions: 300 ng Luciferase DNA per well, luciferase assay after 48 hours
How it was run: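 cos-7 cells were transfected with 300 ng/well luciferase DNA complexed with lipid at ratios from 2.5 to 25 w/w. Bright-Glo luminescence was read after 48 hours and converted to ng luciferase by standard curve. Data are percent of the Lipofectamine 2000 control (2.5 w/w).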

[1] = DNA delivery: raw luciferase expression (relative light units) of best-transfecting lipids; assay type: cell-based; conditions: 300 ng of DNA per well
Method: Raw values for luciferase expression (relative lights units) of best-transfecting lipids at lipid/DNA (w/w) ratios listed. 300 ng of DNA was added per well.

| SMILES | Luciferase expression as a percentage of that achieved using Lipofectamine 2000 (cos-7 cells; lipid/DNA 2.5 w/w) [%] | Luciferase expression as a percentage of that achieved using Lipofectamine 2000 (cos-7 cells; lipid/DNA 5 w/w) [%] | Luciferase expression as a percentage of that achieved using Lipofectamine 2000 (cos-7 cells; lipid/DNA 10 w/w) [%] | Luciferase expression as a percentage of that achieved using Lipofectamine 2000 (cos-7 cells; lipid/DNA 15 w/w) [%] | Luciferase expression as a percentage of that achieved using Lipofectamine 2000 (cos-7 cells; lipid/DNA 20 w/w) [%] | Luciferase expression as a percentage of that achieved using Lipofectamine 2000 (cos-7 cells; lipid/DNA 25 w/w) [%] | Raw values for luciferase expression ([1]; lipid/DNA 2.5 w/w) [relative lights units] | Raw values for luciferase expression ([1]; lipid/DNA 5 w/w) [relative lights units] |
| --- | --- | --- | --- | --- | --- | --- | --- | --- |
| CCCCCCCCCCCCNC(=O)CCN(CCC(=O)NCCCCCCCCCCCC)CCN(CCO)CCO [ND86] | 0.5 | 0.2 | 0.0 | 0.0 | 0.0 | 0.0 | – | – |
| CCCCCCCCCCCCNC(=O)CCN(CCCN(CCO)CCO)CCC(=O)NCCCCCCCCCCCC [ND87] | 0.0 | 0.0 | 0.0 | 0.0 | 0.0 | 0.0 | – | – |
| CCCCCCCCCCCCNC(=O)CCN(CCC(=O)NCCCCCCCCCCCC)CCc1c[nH]cn1 [ND94] | – | – | – | – | – | – | 774425 | 1382667 |
| CCCCCCCCCCCCNC(=O)CCN(C)CCCN(CCC(=O)NCCCCCCCCCCCC)CCC(=O)NCCCCCCCCCCCC [ND96] | – | – | – | – | – | – | 2910700 | 42837 |
| CCCCCCCCCCOC(=O)CC[N+](C)(CCCOC)CCC(=O)OCCCCCCCCCC.[I-] [QB1] | 0.4 | 0.3 | 0.4 | 0.3 | 0.4 | 0.4 | – | – |
| CCCCCCCCCCOC(=O)CC[N+](C)(CCC(=O)OCCCCCCCCCC)CCC1OCCO1.[I-] [QB6] | 0.0 | 0.0 | 0.0 | 0.0 | 0.0 | 0.0 | – | – |
| CCCCCCCCCCOC(=O)CC[N+](C)(CCC(=O)OCCCCCCCCCC)CC1COC(C)(C)O1.[I-] (stereo not shown) [QB7] | 0.0 | 0.0 | 0.0 | 0.0 | 0.0 | 0.0 | – | – |
| CCCCCCCCCCCCOC(=O)CC[N+](C)(CCCCO)CCC(=O)OCCCCCCCCCCCC.[I-] [QD28] | – | – | 0.1 | 0.1 | – | – | – | – |
| CCCCCCCCCCCCOC(=O)CC[N+](C)(CCC(=O)OCCCCCCCCCCCC)CC[N+](C)(CCO)CCO.[I-].[I-] [QD86] | – | – | 2.0 | 2.0 | – | – | – | – |
| CCCCCCCCCCCCOC(=O)CC[N+](C)(CCC[N+](C)(CCO)CCO)CCC(=O)OCCCCCCCCCCCC.[I-].[I-] [QD87] | – | – | 0.5 | 0.7 | – | – | – | – |
